Measured values: patent US6906068B1, “Substituted polycyclic aryl and heteroaryl 1,2,4 - triazinones useful as anticoagulants” (Pharmacia Corporation, priority 1999, dated 2005)

Experiments:
Type in all cases: biochemical
[1] = target: T1, TF-VIIa (recombinant soluble tissue factor and recombinant human factor VIIa) (Homo sapiens, UniProt P08709); experiment: TF-VIIa Assay
T1 construct: conversion of coagulation factor VII to VIIa by Xa; purchased American Diagnostica, Greenwich Conn; host or cells: factor VIIa purchased; soluble TF made in house in E. coli
T1 sequence (P08709 213-466 limits assumed): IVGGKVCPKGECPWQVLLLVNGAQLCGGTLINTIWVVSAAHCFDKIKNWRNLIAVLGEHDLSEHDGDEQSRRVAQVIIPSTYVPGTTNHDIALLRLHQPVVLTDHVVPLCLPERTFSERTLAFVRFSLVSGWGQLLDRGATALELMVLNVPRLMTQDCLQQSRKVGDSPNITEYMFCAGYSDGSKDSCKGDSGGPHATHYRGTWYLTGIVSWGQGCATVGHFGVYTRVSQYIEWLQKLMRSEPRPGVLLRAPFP
T1 sequence (P08709 61-212 partner limits assumed): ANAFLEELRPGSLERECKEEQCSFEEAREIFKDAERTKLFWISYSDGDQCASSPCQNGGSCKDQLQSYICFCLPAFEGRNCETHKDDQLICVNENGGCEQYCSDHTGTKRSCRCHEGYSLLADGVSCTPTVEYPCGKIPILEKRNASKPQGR
T1 sequence (P13726 33-251 partner limits assumed): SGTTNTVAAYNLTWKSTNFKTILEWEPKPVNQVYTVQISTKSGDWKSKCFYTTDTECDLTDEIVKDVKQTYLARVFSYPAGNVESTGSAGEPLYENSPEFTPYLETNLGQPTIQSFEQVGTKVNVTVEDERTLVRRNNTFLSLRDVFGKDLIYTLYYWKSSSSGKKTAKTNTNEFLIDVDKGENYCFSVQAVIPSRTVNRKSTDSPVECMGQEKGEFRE
Procedure: In this assy 100 nM recombinant soluble tissue factor and 2 nM recombinant human factor VIIa are added to a 96-well assay plate containing 0.4 mM of the substrate, N-Methylsulfonyl-D-phe-gly-arg-p-nitroaniline and either inhibitor or buffer (5 mM CaCl2, 50 mM Tris-HCl, pH 8.0, 100 mM NaCl, 0.1% BSA). The reaction, in a final volume of 100 ul is measured immediately at 405 nm to determine background absorbance. The plate is incubated at room temperature for 60 min, at which time the rate of hydrolysis of the substrate is measured by monitoring the reaction at 405 nm for the release of p-nitroaniline. Percent inhibition of TF-VIIa activity is calculated from OD405 nm value from the experimental and control sample.
(§1) Recombinant soluble TF, consisting of amino acids 1-219 of the mature protein sequence was expressed in E. coli and purified using a Mono Q Sepharose FPLC. Recombinant human VIIa was purchased from American Diagnostica, Greenwich Conn. and chromogenic substrate N-Methylsulfonyl-D-phe-gly-arg-p-nitroaniline was prepared by American Peptide Company, Inc., Sunnyvale, Calif. Factor Xa was obtained from Enzyme Research Laboratories, South Bend Ind., thrombin from Calbiochem, La Jolla, Calif., and trypsin and L-BAPNA from Sigma, St. Louis Mo. The chromogenic substrates S-2765 and S-2238 were purchased from Chromog nix, Sweden.

[2] = target: T2, trypsin, type IX from porcine pancreas (Sus scrofa, UniProt P00761); experiment: Trypsin Assay; conditions: read-out: Trpysin II IC50
T2 construct: purchased Sigma, St. Louis Mo. type IX; host or cells: porcine pancreas
T2 sequence (P00761 9-231): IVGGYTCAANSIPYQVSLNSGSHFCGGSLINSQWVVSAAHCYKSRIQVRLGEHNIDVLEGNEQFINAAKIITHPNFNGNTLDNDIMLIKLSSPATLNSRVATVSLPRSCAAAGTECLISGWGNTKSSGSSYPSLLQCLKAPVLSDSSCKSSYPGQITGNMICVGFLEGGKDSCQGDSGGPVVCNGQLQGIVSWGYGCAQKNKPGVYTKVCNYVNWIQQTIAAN
Procedure: 5 ug/ml trypsin, type IX from porcine pancreas and 0.375 mM N-α-Benzoyl-L-arginine-p-nitroanilide (L-BAPNA) are added to a 96-well assay plate containing either inhibitor or buffer (50 mM Tris-HCl, pH 8.0, 100 mM NaCl, 0.1% BSA). The reactions, in a final volume of 100 ul are measured immediately at 405 nm to determine background absorbance. The plate is incubated at room temperature for 60 min, at which time the rate of hydrolysis of the substrate is measured by monitoring the reaction at 405 nm for the release of p-nitroaniline. Percent inhibition of trypsin activity is calculated from OD405 nm value from the experimental and control sample.
as §1

human thrombin = human thrombin (Homo sapiens, UniProt P00734); experiment: Thrombin Assay; conditions: @ 30 uM
Procedure: 0.28 nM human thrombin and 0.06 mM H-D-Phenylalanyl-L-pipecolyl-L-arginine-p-nitroaniline dibydrochloride are added to a 96-well assay plate containing either inhibitor or buffer (50 mM Tris-HCl, pH 8.0, 100 mM NaCl, 0.1% BSA). The reaction, in a final volume of 100 ul is measured immediately at 405 nm to determine background absorbance. The plate is incubated at room temperature for 60 min, at which time the rate of hydrolysis of the substrate is measured by monitoring the reaction at 405 nm for the release of p-nitroaniline. Percent inhibition of thrombin activity is calculated from OD405 nm value from the experimental and control sample.

human factor Xa = target: T3, human factor Xa (Homo sapiens, UniProt P00742); experiment: Xa Assay; conditions: @ 30 uM
T3 construct: purchased Enzyme Research Laboratories, South Bend Ind
T3 sequence (P00742 235-488 limits assumed): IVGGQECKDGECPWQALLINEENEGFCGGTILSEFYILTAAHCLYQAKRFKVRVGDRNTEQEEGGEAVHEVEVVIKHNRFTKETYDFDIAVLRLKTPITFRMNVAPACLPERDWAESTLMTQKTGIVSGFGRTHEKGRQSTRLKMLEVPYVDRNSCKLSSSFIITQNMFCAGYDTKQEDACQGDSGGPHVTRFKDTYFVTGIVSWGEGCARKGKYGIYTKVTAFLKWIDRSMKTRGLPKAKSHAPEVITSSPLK
T3 sequence (P00742 41-179 partner limits assumed): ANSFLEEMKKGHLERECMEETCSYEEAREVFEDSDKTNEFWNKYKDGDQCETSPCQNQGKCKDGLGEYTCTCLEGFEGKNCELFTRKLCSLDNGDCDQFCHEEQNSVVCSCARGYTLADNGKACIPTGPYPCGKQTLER
Procedure: 0.3 nM human factor Xa and 0.15 mM N-α-Benzyloxycarbonyl-D-arginyl-L-glycyl-L-arginine-p-nitroaniline-dihydrochloride (S-2765) are added to a 96-well assay plate containing either inhibitor or buffer (50 mM Tris-HCl, pH 8.0, 100 mM NaCl, 0.1% BSA). The reaction, in a final volume of 100 ul is measured immediately at 405 nm to determine background absorbance. The plate is incubated at room temperature for 60 min, at which time the rate of hydrolysis of the substrate is measured by monitoring the ieaction at 405 nm for the release of p-nitroaniline. Percent inhibition of Xa activity is calculated from OD405 nm value from the experimental and control sample.
as §1

Structure (SMILES) | IC50 [1] [µM] | IC50 [2] [µM] | Thrombin II percent inhibition (human thrombin) | Factor Xa percent inhibition (human factor Xa) [% @ 30 uM]
N=C(N)c1cccc(CNC(=O)Cn2c(-c3ccccc3)ncc(NS(=O)(=O)Cc3ccccc3)c2=O)c1 [Example 2] | > 30 | > 30 | – | –
CC(C)Nc1cnc(-c2cccc(N)c2)n(CC(=O)NCc2ccc(C(=N)N)cc2)c1=O [Example 6] | – | – | 43% @ 30 um | 33
CC(C)Nc1cnc(-c2cccnc2)n(CC(=O)NCc2ccc(C(=N)N)cc2)c1=O [Example 7] | – | – | – | 33
N=C(N)c1ccc(CNC(=O)Cn2c(-c3cccc(N)c3)ncc(NC3CCC3)c2=O)cc1 [Example 8] | – | – | 42% @ 30 uM | 15
